In patent US20100249243A1, “NOVEL BETA-HYDROXYKETONES AND BETA-ALKOXYKETONES WITH ESTROGENIC ACTIVITY” (priority 2007, published 2010):

Columns and labels:
ERβ = ERβ (Homo sapiens, UniProt Q92731); assay: ERβ luciferase reporter (pERE2TATA-LUC) transactivation assay in transfected HEK293 cells; type: cell-based; parameters: expressed in transfected cells; host or cells: HEK293; details: for ERβ receptor activation relative to 10 nM E2 corresponding 100: Table 1, sample concentration 10 μM, mean of at least three independent transfections, SEM typically <15%; for ERβ receptor activation relative to 10 nM E2 corresponding 100 / ERβ in vitro activity (receptor activation relative to 10 nM E2): 24 hours; for Emax at 10 µM: HEK293, 24 h, read-out: ERβ receptor activation relative to 10 nM E2 corresponding 100, Table 1, sample concentration 10 μM, mean of at least three independent transfections, SEM typically <15%; for ERβ in vitro activity (receptor activation relative to 10 nM E2): Table 2, previously published compounds, test compound 10 μM
Method: (§1) All other reagents were of reagent grade from Sigma or Fluka. One day before transfection, HEK293 cells were seeded in 48-well plates (70×10^3 cells per well) in phenol-free Dulbecco's modified Eagle medium supplemented with 5% delipidated fetal bovine serum (Sigma) and antibiotics. After a medium change, the cells were transfected for 4 hours with 5 ng ERα or ERβ expression vector, 75 ng reporter plasmid pERE2TATA-LUC and 20 ng control plasmid pCMVβ by the calcium phosphate method. After transfection, the cells received fresh medium containing either vehicle (0.1% v/v) or test compound (10 μM). After 24 hours, the cells were washed, lysed and luciferase and β-galactosidase activities were determined from 20 μl of lysates with the Victor^2TM reader (PerkinElmer Wallac, Turku, Finland). […] The data are means±SEM of at least three independent transfections.

ERα = biological target: T1, ERα (Homo sapiens, UniProt P03372); assay: ERα luciferase reporter (pERE2TATA-LUC) transactivation assay in transfected HEK293 cells; type: cell-based; parameters: expressed in transfected cells; host or cells: HEK293; details: 24 hours; for ERα receptor activation relative to 10 nM E2 corresponding 100: Table 1, sample concentration 10 μM, mean of at least three independent transfections, SEM typically <15%; for ERα in vitro activity (receptor activation relative to 10 nM E2): Table 2, previously published compounds, test compound 10 μM
T1 sequence (P03372 1-595): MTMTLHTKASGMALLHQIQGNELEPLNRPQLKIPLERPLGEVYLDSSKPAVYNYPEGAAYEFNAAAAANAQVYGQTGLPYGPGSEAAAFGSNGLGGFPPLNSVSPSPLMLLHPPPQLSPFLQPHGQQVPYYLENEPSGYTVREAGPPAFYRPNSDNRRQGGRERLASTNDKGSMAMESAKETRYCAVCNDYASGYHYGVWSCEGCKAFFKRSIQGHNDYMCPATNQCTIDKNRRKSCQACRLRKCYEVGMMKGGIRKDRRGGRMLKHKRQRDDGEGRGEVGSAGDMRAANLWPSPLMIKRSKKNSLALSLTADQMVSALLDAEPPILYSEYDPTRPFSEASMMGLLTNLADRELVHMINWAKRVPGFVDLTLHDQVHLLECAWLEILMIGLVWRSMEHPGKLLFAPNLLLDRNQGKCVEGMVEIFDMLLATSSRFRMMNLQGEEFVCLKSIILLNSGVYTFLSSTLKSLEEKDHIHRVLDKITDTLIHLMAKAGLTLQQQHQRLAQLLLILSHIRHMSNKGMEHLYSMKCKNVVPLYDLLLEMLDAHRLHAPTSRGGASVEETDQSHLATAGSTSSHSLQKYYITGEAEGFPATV
Method: as §1

Sequence of ERβ (Q92731 whole entry): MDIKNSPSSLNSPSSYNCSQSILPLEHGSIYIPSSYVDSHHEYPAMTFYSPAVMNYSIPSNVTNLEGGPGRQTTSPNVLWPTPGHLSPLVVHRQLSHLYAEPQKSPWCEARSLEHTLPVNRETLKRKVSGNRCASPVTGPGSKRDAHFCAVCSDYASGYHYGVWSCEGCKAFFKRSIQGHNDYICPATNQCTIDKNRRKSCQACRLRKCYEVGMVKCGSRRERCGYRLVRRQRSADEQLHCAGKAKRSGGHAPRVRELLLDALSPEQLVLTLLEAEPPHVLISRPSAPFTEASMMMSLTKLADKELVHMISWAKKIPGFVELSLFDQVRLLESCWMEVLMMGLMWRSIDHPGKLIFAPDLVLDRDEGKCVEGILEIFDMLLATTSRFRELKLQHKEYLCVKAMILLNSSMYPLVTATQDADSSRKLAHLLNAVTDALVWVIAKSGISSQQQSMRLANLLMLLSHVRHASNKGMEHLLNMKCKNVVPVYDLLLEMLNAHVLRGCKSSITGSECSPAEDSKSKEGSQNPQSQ

ERβ receptor activation relative to 10 nM E2 corresponding 100 (ERβ) [%] | ERα receptor activation relative to 10 nM E2 corresponding 100 (ERα) [%] | Emax at 10 µM (ERβ) [%] | ERβ in vitro activity (receptor activation relative to 10 nM E2) (ERβ) [%] | ERα in vitro activity (receptor activation relative to 10 nM E2) (ERα) [%] | Compound
3.4 | 8.4 | – | – | – | COc1ccccc1CC(=O)CC(O)CCc1cccc(F)c1 (single isomer, unassigned) [Compound 22a, 6-(3-Fluorophenyl)-4-hydroxy-1-(2-methoxyphenyl)-2-hexanone]
– | 5.6 | 2.9 | – | – | COc1ccccc1CC(=O)CC(O)CCc1cccc(F)c1 (single isomer, unassigned) [Compound 22b, 6-(3-Fluorophenyl)-4-hydroxy-1-(2-methoxyphenyl)-2-hexanone]
−0.8 | 1.6 | – | – | – | COc1ccc(CC(O)CC(=O)CCc2ccccc2)cc1 (single isomer, unassigned) [Compound 24a, 5-Hydroxy-6-(4-methoxyphenyl)-1-phenyl-hexan-3-one]
1.2 | 1.3 | – | – | – | COc1ccc(CC(O)CC(=O)CCc2ccccc2)cc1 (single isomer, unassigned) [Compound 24b, 5-Hydroxy-6-(4-methoxyphenyl)-1-phenyl-hexan-3-one]
6.4 | 12.4 | – | – | – | O=C(CCc1ccccc1)CC(O)Cc1ccc2ccccc2c1 (single isomer, unassigned) [Compound 28a, 5-Hydroxy-6-naphthalen-2-yl-1-phenyl-hexan-3-one]
20.1 | 20.1 | – | – | – | O=C(CCc1ccccc1)CC(O)Cc1ccc2ccccc2c1 (single isomer, unassigned) [Compound 28b, 5-Hydroxy-6-naphthalen-2-yl-1-phenyl-hexan-3-one]
107.8 | 87.4 | – | – | – | O=C(CCCc1ccc(O)cc1)CC(O)c1cccc(O)c1 (single isomer, unassigned) [Compound 35a, 1-Hydroxy-1-(3-hydroxy-phenyl)-6-(4-hydroxy-phenyl)-hexan-3-one]
43.8 | 49.3 | – | – | – | O=C(CCCc1ccc(O)cc1)CC(O)c1cccc(O)c1 (single isomer, unassigned) [Compound 35b, 1-Hydroxy-1-(3-hydroxy-phenyl)-6-(4-hydroxy-phenyl)-hexan-3-one]
1.8 | 15.4 | – | – | – | O=C(CCCc1ccc(O)cc1)CC(O)Cc1ccc(O)cc1 (single isomer, unassigned) [Compound 42a, 2-Hydroxy-1,7-di-(4-hydroxy-phenyl)-heptan-4-one]
−1.6 | 2.8 | – | – | – | O=C(CCCc1ccc(O)cc1)CC(O)Cc1ccc(O)cc1 (single isomer, unassigned) [Compound 42b, 2-Hydroxy-1,7-di-(4-hydroxy-phenyl)-heptan-4-one]
– | – | – | 1.1 | 3.0 | O=C(CC(O)CCc1ccccc1)c1ccccc1 (single isomer, unassigned) [Compound 54a, 3-Hydroxy-1,5-diphenyl-pentan-1-one]
– | – | – | 7.3 | 30.2 | O=C(CC(O)CCc1ccccc1)c1ccccc1 (single isomer, unassigned) [Compound 54b, 3-Hydroxy-1,5-diphenyl-pentan-1-one]
– | – | – | 20.5 | 78.8 | O=C(CCc1ccccc1)CC(O)c1ccccc1 (single isomer, unassigned) [Compound 56a, 1-Hydroxy-1,5-diphenyl-pentan-3-one]
– | – | – | 2.8 | 25.3 | O=C(CCc1ccccc1)CC(O)c1ccccc1 (single isomer, unassigned) [Compound 56b, 1-Hydroxy-1,5-diphenyl-pentan-3-one]
– | 0 | -8.7 | – | – | COc1ccc(C(=O)CC(O)Cc2ccc(OCCN(C)C)cc2)cc1 (stereo not shown) [Compound 12ab, 4-[4-(2-Dimethylamino-ethoxy)phenyl]-3-hydroxy-1-(4-methoxy-phenyl)-butan-1-one]
– | 22.6 | 58 | – | – | O=C(CC(O)Cc1ccccc1)c1ccc(O)cc1 (stereo not shown) [Compound 18ab, 3-Hydroxy-1-(4-hydroxyphenyl)-4-phenyl-butan-1-one]

ERβ receptor activation relative to 10 nM E2 corresponding 100 (ERβ) [%] | ERα receptor activation relative to 10 nM E2 corresponding 100 (ERα) [%] | Emax at 10 µM (ERβ) [%] | ERβ in vitro activity (receptor activation relative to 10 nM E2) (ERβ) [%] | ERα in vitro activity (receptor activation relative to 10 nM E2) (ERα) [%] | Compound
– | 12.0 | 7.7 | – | – | O=C(Cc1ccccc1)CC(O)c1cccc(O)c1 (stereo not shown) [Compound 19ab, 4-Hydroxy-4-(3-hydroxyphenyl)-1-phenyl-butan-2-one]
– | 4.3 | 0.2 | – | – | O=C(Cc1ccccc1)CC(O)CCc1ccccc1 (stereo not shown) [Compound 20ab, 4-Hydroxy-1,6-diphenylhexan-2-one]
– | 25.1 | 21.1 | – | – | O=C(Cc1cccc(F)c1)CC(O)CCc1ccccc1 (stereo not shown) [Compound 21ab, 1-(3-Fluorophenyl)-4-hydroxy-6-phenyl-hexan-2-one]
– | 80.3 | 116 | – | – | CC(O)(CC(=O)CCc1ccc(O)cc1)c1ccccc1 (stereo not shown) [Compound 23ab, 5-Hydroxy-1-(4-hydroxy-phenyl)-5-phenyl-hexan-3-one]
– | 51.4 | 6.1 | – | – | O=C(CCc1ccccc1)CC(O)Cc1ccc(O)cc1 (stereo not shown) [Compound 25ab, 5-Hydroxy-6-(4-hydroxy-phenyl)-1-phenyl-hexan-3-one]
– | 35.0 | 3.9 | – | – | O=C(CCc1ccccc1)CC(O)Cc1ccc(F)cc1 (stereo not shown) [Compound 26ab, 6-(4-Fluorophenyl)-5-hydroxy-1-phenyl-hexan-3-one]
– | 12.1 | 1.7 | – | – | O=C(CCc1ccccc1)CC(O)Cc1cccc2ccccc12 (stereo not shown) [Compound 27ab, 5-Hydroxy-6-naphthalen-1-yl-1-phenyl-hexan-3-one]
– | 45.2 | 5.1 | – | – | O=C(CCc1ccccc1O)CC(O)Cc1ccccc1 (stereo not shown) [Compound 30ab, 5-Hydroxy-1-(2-hydroxy-phenyl)-6-phenyl-hexan-3-one]
– | 21.6 | 11.1 | – | – | O=C(CCc1ccccc1O)CC(O)Cc1ccc(F)cc1 (stereo not shown) [Compound 32ab, 6-(4-Fluoro-phenyl)-5-hydroxy-1-(2-hydroxy-phenyl)-hexan-3-one]
– | 28.6 | 21.2 | – | – | O=C(CCc1ccc(O)cc1)CC(O)Cc1ccc(F)cc1 (stereo not shown) [Compound 33ab, 6-(4-Fluoro-phenyl)-5-hydroxy-1-(4-hydroxy-phenyl)-hexan-3-one]
– | 90.9 | 103 | – | – | CC(O)(CC(=O)CCCc1ccc(O)cc1)c1ccccc1 (stereo not shown) [Compound 37ab, 6-Hydroxy-1-(4-hydroxy-phenyl)-6-phenyl-heptan-4-one]
– | 24.7 | 9.1 | – | – | O=C(CCCc1ccccc1)CC(O)Cc1ccccc1 (stereo not shown) [Compound 38ab, 2-Hydroxy-1,7-diphenyl-heptan-4-one]
– | 16.0 | 2.4 | – | – | O=C(CCCc1ccccc1)CC(O)Cc1ccc(O)cc1 (stereo not shown) [Compound 39ab, 2-Hydroxy-1-(4-hydroxy-phenyl)-7-phenyl-heptan-4-one]
– | −0.5 | -0.8 | – | – | O=C(CCCc1ccc(O)c(O)c1)CC(O)Cc1ccccc1 (stereo not shown) [Compound 41ab, 2-Hydroxy-7-(3,4-dihydroxy-phenyl)-1-phenyl-heptan-4-one]
– | 2.2 | -7.1 | – | – | O=C(CCCc1ccccc1)CC(O)CCc1ccccc1 (stereo not shown) [Compound 43ab, 6-Hydroxy-1,8-diphenyl-octan-4-one]
– | 12.0 | 0.2 | – | – | COC(CCc1ccccc1)CC(=O)Cc1ccccc1 (stereo not shown) [Compound 44ab, 4-Methoxy-1,6-diphenyl-hexan-2-one]
